Where two headings read alike, the source gives them in different places.
What was measured:
[1] = Clearance prediction from incubation with human liver microsomes; type: in vitro ADME
Description: Drug disappearance t1/2 value measurements in rat and human microsomes were used to determine the in vitro apparent intrinsic clearance value (CLintapp) of buagafuran acquired using Then CLintapp was converted to in vivo intrinsic clearance (CLint).
Rat or human liver microsomal incubation (0.5 mg/mL) was carried out at 37°C in a mixture of 0.5 mL in 0.05 M Tris–HCl buffer (pH 7.4). Buagafuran (2 μM) was added to the incubation system. The addition of NADPH (1 mM) initiated the reaction, then the reaction was incubated for 0, 10, 20, 30, 45, and 60 min. The equal volume of acetonitrile containing the IS (10 ng/mL) was added to stop the reaction. The mixtures were centrifuged at 16000 g for 5 min and the supernatants were determined using LC-MS/MS method.
The natural log (In) of buagafuran concentration versus time was plotted and the slope of the best fit line of was determined by the data (k). This was converted into in vitro t1/2 where t1/2 = In 2/k. CLintapp was calculated by the following equation: […]
Where M is the microsomal protein concentration in the incubation. CLint by liver was calculated from equation 2:
(2) CLint=CLint(app)×mgmicrosome/gliver×liverweight(g)/bodyweight(kg)
Where a value of 45 mg of protein per gram of liver tissue was used for both rat and human, and a liver weight of 40 and 21 g per kg were applied to rat and human, respectively ([Hosea et al., 2009]). […]

[2] = Plasma PK in the rat after oral dosing (observed); type: in vivo, male Wistar rats; settings: male, Wistar; for AUC(0-t): read-out: AUC0-t Observed; for AUC(0-inf): read-out: AUC0-∞ Observed; for MRT inf: read-out: MRT(0-∞) Observed
Source text: Animal Care and Welfare Committee of Institute of Materia Medica, Chinese Academy of Medical Sciences approved all animal protocols (1 Xian nong tan Street, Xicheng District, Beijing, China; Permission Number: SYXK 2014-0023, Expiration: 06 Aug, 2019). All animal programs are in compliance with the Guide for the Care and Use of Laboratory Animals issued by Beijing Association on Laboratory Animal Care (BALAC). Buagafuran formulation of PVP was suspended in deionized water and was orally administered at 4 or 8 mg/kg to male Wistar rats (weighing 180–200 g). Brain samples treated with the dose of 4 mg/kg and blood samples of both treatments were collected over 3 h. Plasma samples were obtained by centrifugation, and brain tissues were homogenized in a threefold volume (w/v) of saline. Buagafuran concentrations in plasma and brain samples were quantitated by an LC-MS/MS method ([Yang et al., 2011]).
A volume of 200 μL plasma or tissue homogenate was mixed with 100 μL IS (10 ng/mL) followed by addition of 2 mL hexane. After vortexing for 2 min, the mixture was centrifuged for 5 min at 3000 g. The extracted solution was combined and evaporated to dryness at 25°C. The residues were reconstituted in 80 μL of 80% methanol. The chromatographic separation and mass spectrometric analysis was performed on a LC/TSQ Quantum Access mass spectrometer (Thermo Finnigan, San Jose, CA, United States). Ten microliter of the sample was injected onto an Agilent Eclipse Plus C18 analytical column (3.5 μm, 50 mm × 2.1 mm) and then buagafuran and IS were eluted with a gradient of acetonitrile (phase B) and water containing 0.1% v/v formic acid (phase A). The elution program was applied as follows: 50% B for 0–0.5 min, 50% B→97% B for 0.6–5.5 min, 50% B for 5.6–7.6 min. The outlet of the column was detected in positive ionization electrospray mode with selected reaction monitoring. The monitored transitions of buagafuran and IS were m/z 245→105 and 500→142, respectively. The retention time (RT) of buagafuran was 6.13 min. The linear range of the calibration curve was 0.5–800 ng/mL.
Pharmacokinetic parameters were determined with a non-compartmental model using WinNonlin v 6.0 (Pharsight Corporation, Mountain View, CA, United States). The area under the compound concentration versus time curve from time zero to the last time point (AUC0-t) and extrapolated to infinity (AUC0-∞) and the peak plasma concentration (Cmax) were calculated.

[3] = design: method as in Hu et al., 2011; settings: rats, oral administration; ref Hu et al., 2011; cited from earlier work
[4] = design: method as in Zhang, 1997; Li et al., 2001; Li, 2010; settings: rat liver microsomes, ref Zhang, 1997, Li et al., 2001, 2010; cited from earlier work
CYP3A and CYP2E = system: CYP3A and CYP2E; design: method as in Zhang, 1997; Li et al., 2001; Li, 2010; settings: ref Zhang, 1997, Li et al., 2001, 2010; cited from earlier work

Compound `CCCCC1=CCC[C@@]2(C)CC[C@@H]3C[C@]12OC3(C)C` [buagafuran] has a CLhep predicted ([1]; from human liver microsomes, well-stirred model) of 7.7 mL/min/kg, a microsomal CLint at 2 μM ([1]; pH 7.4, human liver microsomes 0.5 mg/mL, 2 μM, read-out: in vitro CLintapp) of 22 µL/min/mg and a Cmax ([2]; oral 4 mg/kg) of 5.31 ng/mL. The AUC(0-t) ([2]; oral 4 mg/kg) was 6.69 ng·h/mL, the AUC(0-inf) ([2]; oral 4 mg/kg) was 11.4 ng·h/mL and the MRT inf ([2]; oral 4 mg/kg) was 212 min. For the same compound, the Tmax ([2]; oral 4 mg/kg, read-out: Tmax Observed) was 15 min, the Cmax ([2]; oral 8 mg/kg) was 10.6 ng/mL and the AUC(0-t) ([2]; oral 8 mg/kg) was 14.2 ng·h/mL. For the same compound, the AUC(0-inf) ([2]; oral 8 mg/kg) was 15.1 ng·h/mL, the MRT inf ([2]; oral 8 mg/kg) was 72.6 min and the Tmax ([2]; single oral dosing 4 and 8 mg/kg, read-out: time of peak plasma concentration (converted)) was 15 min. For the same compound, the “dose recovered as prototype in the bile” value [3] was less than 0.3%, the “dose recovered as prototype in the urine” value [3] was “less than 0.1%” and the “radioactivity recovered in feces” value [3] was 28.7%. The “radioactivity recovered in urine” value [3] was 51.2%, the total radioactivity recovered [3] was “about 80%” and the extraction ratio [4] was “about 50%”. For the same compound, the “major enzymes involved in its metabolism in vitro” value (CYP3A and CYP2E) was “CYP3A and CYP2E”.

— article PMC5641330, “Prediction of a Therapeutic Dose for Buagafuran, a Potent Anxiolytic Agent by Physiologically Based Pharmacokinetic/Pharmacodynamic Modeling Starting from Pharmacokinetics in Rats and Human” (Frontiers in Pharmacology, 2017)
